Test results reported in patent US20250281419A1, “LIPID AMINES” (ModernaTX, Inc., priority 2021, published 2025).

Test system: HeLa cells
Assay: CFTR protein expression assay in HeLa cells (LNPs of Example 2, immunofluorescence)
Type: cell-based, Human
Details: compared to buffer (PBS) control, 5 h transfection, 24 h incubation, N=4 wells
Protocol: Lipid nanoparticles were prepared using ethanol drop nanoprecipitation followed by solvent exchange into suitable aqueous buffer using dialysis. An exemplary lipid nanoparticle composition can be prepared by a process where lipids are dissolved in ethanol at a concentration of 12.5 mM and molar ratios of 33:15:11:39.5:1.5 (e.g., ionizable lipid:SA46:phospholipid:cholesterol:PL1). Lipid to mRNA is maintained at a N/P ratio of 4.9. Then mRNA is diluted with 25 mM sodium acetate (pH 5.0) and combined with the lipid mixture at a volume ratio of 3:1 (aqueous: ethanol). Resulting formulations are dialyzed against 20 mM tris/8% sucrose/70 mM sodium chloride (pH 7.4) at a volume of 300 times that of the primary product using Slide-A-Lyzer dialysis cassettes (Thermo Scientific, Rockford, IL, USA) with a molecular cutoff of 10 KDa for at least 18 h. The first dialysis is carried out at room temperature in a digital orbital shaker (VWR, Radnor, PA, USA) at 85 rpm for 3 h and then dialyzed overnight at 4° C. Formulations are concentrated using Amicon ultra-centrifugal filters (EMD Millipore, Billerica, MA, USA), passed through a 0.22-μm filter and stored at 4° C. until use. Lipid nanoparticle solutions are typically adjusted to specific mRNA concentrations between 0.1 and 1 mg/mL. LNPs were prepared according to Example 2. To evaluate LNP cellular uptake and protein expression in vitro, HeLa cells from ATCC.org (ATCC CCL-2) are used. The cells are cultured in complete Minimum Essential Medium (MEM) and are plated in 96 well Cell Carrier Ultra plate with PDL coated surface (PerkinElmer) prior to running an experiment. Buffer control (PBS) and LNPs encapsulating cystic fibrosis transmembrane conductance regulator (CFTR) mRNA were dosed with MEM media in the absence of serum (N=4 replicate wells). LNP transfected cells were incubated for 5 h, followed by media removal and supplementation with complete MEM media. Cells were further incubated in complete MEM media overnight (24 h). Following 24 hr incubation, the cells were fixed with PFA and processed for immunofluorescence (IF) using an anti-CFTR rabbit monoclonal antibody. Briefly, the cells were permeabilized with 0.5% TX-100 for 10 min, blocked with 3% bovine serum albumin (BSA)+PBST for 1 hr at room temperature, and incubated with primary anti-CFTR monoclonal antibody overnight at 4° C. Following primary antibody incubation, the cells were incubated with Alexa 488 conjugated secondary antibody for 30 min, and stained with DAPI and HCS CellMask Blue stain. Between different incubation steps the cells were either washed with PBS or PBST. Cells were imaged using Opera Phoenix spinning disk confocal microscope (PerkinElmer), and CFTR protein expression was detected using the 488 nm channel. The image analysis was performed in Harmony 4.9, with main analysis output being CFTR intensity per cell. The results shown in Table 3a show fold-change in CFTR signal intensity per cell compared to buffer (PBS) control (nanoparticle composition: IL1:Lipid Amine:DSPC:Chol:PL1). The results shown in Table 3b show fold-change in CFTR signal intensity per cell compared to buffer (PBS) control (nanoparticle composition: IL1:Lipid Amine:DPPC:Chol:PL1).

[1] = LNP IL1:Lipid Amine:DPPC:Chol:PL1 with CFTR mRNA
[2] = LNP IL1:Lipid Amine:DSPC:Chol:PL1 with CFTR mRNA

CC[C@H](CC[C@@H](C)[C@H]1CC[C@H]2[C@@H]3CC=C4C[C@@H](OC(=O)NCCCN(C)C)CC[C@]4(C)[C@H]3CC[C@]12C)C(C)C [SA46, (3S,8S,9S,10R,13R,14S,17R)-17-((2R,5R)-5-Ethyl-6-methylheptan-2-yl)-10,13-dimethyl-2,3,4,7,8,9,10,11,12,13,14,15,16,17-tetradecahydro-1H-cyclopenta[a]phenanthren-3-yl (3-(dimethylamino)propyl)carbamate]
Average fold-change in CFTR signal intensity per cell ± standard deviation [1]: 10.2 ± 0.2 fold-change
Average fold-change in CFTR signal intensity per cell ± standard deviation [2]: 4.7 ± 0.2 fold-change

CC[C@H](CC[C@@H](C)[C@H]1CC[C@H]2[C@@H]3CC=C4C[C@@H](OC(=O)NCCCCN(C)C)CC[C@]4(C)[C@H]3CC[C@]12C)C(C)C [SA47, (3S,8S,9S,10R,13R,14S,17R)-17-((2R,5R)-5-Ethyl-6-methylheptan-2-yl)-10,13-dimethyl-2,3,4,7,8,9,10,11,12,13,14,15,16,17-tetradecahydro-1H-cyclopenta[a]phenanthren-3-yl (4-(dimethylamino)butyl)carbamate]
Average fold-change in CFTR signal intensity per cell ± standard deviation [1]: 10.9 ± 0.4 fold-change
Average fold-change in CFTR signal intensity per cell ± standard deviation [2]: 4.6 ± 0.4 fold-change

CC[C@H](CC[C@@H](C)[C@H]1CC[C@H]2[C@@H]3CC=C4C[C@@H](OC(=O)NCCN(CCO)CCO)CC[C@]4(C)[C@H]3CC[C@]12C)C(C)C [SA48, (3S,8S,9S,10R,13R,14S,17R)-17-((2R,5R)-5-Ethyl-6-methylheptan-2-yl)-10,13-dimethyl-2,3,4,7,8,9,10,11,12,13,14,15,16,17-tetradecahydro-1H-cyclopenta[a]phenanthren-3-yl (2-(bis(2-hydroxyethyl)amino)ethyl)carbamate]
Average fold-change in CFTR signal intensity per cell ± standard deviation [1]: 5.3 ± 1.0 fold-change
Average fold-change in CFTR signal intensity per cell ± standard deviation [2]: 4.4 ± 0.3 fold-change

CC[C@H](CC[C@@H](C)[C@H]1CC[C@H]2[C@@H]3CC=C4C[C@@H](OC(=O)NCCOCCN(C)C)CC[C@]4(C)[C@H]3CC[C@]12C)C(C)C [SA49, (3S,8S,9S,10R,13R,14S,17R)-17-((2R,5R)-5-Ethyl-6-methylheptan-2-yl)-10,13-dimethyl-2,3,4,7,8,9,10,11,12,13,14,15,16,17-tetradecahydro-1H-cyclopenta[a]phenanthren-3-yl (2-(2-(dimethylamino)ethoxy)ethyl)carbamate]
Average fold-change in CFTR signal intensity per cell ± standard deviation [1]: 1 ± 0.0 fold-change
Average fold-change in CFTR signal intensity per cell ± standard deviation [2]: 1.1 ± 0.0 fold-change

CC[C@H](CC[C@@H](C)[C@H]1CC[C@H]2[C@@H]3CC=C4C[C@@H](OC(=O)NCC(C)(C)N(C)C)CC[C@]4(C)[C@H]3CC[C@]12C)C(C)C [SA53, (3S,8S,9S,10R,13R,14S,17R)-17-((2R,5R)-5-Ethyl-6-methylheptan-2-yl)-10,13-dimethyl-2,3,4,7,8,9,10,11,12,13,14,15,16,17-tetradecahydro-1H-cyclopenta[a]phenanthren-3-yl (2-(dimethylamino)-2-methylpropyl)carbamate]
Average fold-change in CFTR signal intensity per cell ± standard deviation [1]: 13.0 ± 1.2 fold-change
Average fold-change in CFTR signal intensity per cell ± standard deviation [2]: 4.4 ± 0.8 fold-change

CC[C@H](CC[C@@H](C)[C@H]1CC[C@H]2[C@@H]3CC=C4C[C@@H](OC(=O)NCC5(N(C)C)CC5)CC[C@]4(C)[C@H]3CC[C@]12C)C(C)C [SA54, (3S,8S,9S,10R,13R,14S,17R)-17-((2R,5R)-5-Ethyl-6-methylheptan-2-yl)-10,13-dimethyl-2,3,4,7,8,9,10,11,12,13,14,15,16,17-tetradecahydro-1H-cyclopenta[a]phenanthren-3-yl ((1-(dimethylamino)cyclopropyl)methyl)carbamate]
Average fold-change in CFTR signal intensity per cell ± standard deviation [1]: 1.3 ± 0.1 fold-change
Average fold-change in CFTR signal intensity per cell ± standard deviation [2]: 1.5 ± 0.1 fold-change

CC[C@H](CC[C@@H](C)[C@H]1CC[C@H]2[C@@H]3CC=C4C[C@@H](OC(=O)NCC(C)(C)N)CC[C@]4(C)[C@H]3CC[C@]12C)C(C)C.Cl [SA55, (3S,8S,9S,10R,13R,14S,17R)-17-((2R,5R)-5-Ethyl-6-methylheptan-2-yl)-10,13-dimethyl-2,3,4,7,8,9,10,11,12,13,14,15,16,17-tetradecahydro-1H-cyclopenta[a]phenanthren-3-yl (2-amino-2-methylpropyl)carbamate Hydrochloride]
Average fold-change in CFTR signal intensity per cell ± standard deviation [1]: 12.1 ± 0.7 fold-change
Average fold-change in CFTR signal intensity per cell ± standard deviation [2]: 4.9 ± 0.2 fold-change
